Here are results for 14 molecules from ChEMBL document CHEMBL4425107, “Monothiocarbamates Strongly Inhibit Carbonic Anhydrases in Vitro and Possess Intraocular Pressure Lowering Activity in an Animal Model of Glaucoma” (J Med Chem, 2016).

One experiment has as its target Carbonic anhydrase 2 (Homo sapiens, UniProt P00918). The experiment is described as follows: Inhibition of human carbonic anhydrase 2 preincubated for 15 mins by CO2 hydration stopped-flow assay.
A further experiment concerns the target Carbonic anhydrase 9 (Homo sapiens, UniProt Q16790). The experiment is described as follows: Inhibition of human carbonic anhydrase 9 catalytic domain preincubated for 15 mins by CO2 hydration stopped-flow assay.
Another experiment addresses Carbonic anhydrase 1 (Homo sapiens, UniProt P00915). The experiment can be described thus: Inhibition of human carbonic anhydrase 1 preincubated for 15 mins by CO2 hydration stopped-flow assay.
In the next experiment the test system is Oryctolagus cuniculus. The experiment can be described thus: Ocular hypotensive activity in sterile hypertonic saline injected hypertensive New Zealand white rabbit assessed as reduction in intraocular pressure at 1 % administered as eye drops up to 240 mins post injection. The experiment is classed as functional, organism-based.

The source made the active and inactive calls. No cut-off for these calls is given here. Bounds are passed on as bounds.

Carbonic anhydrase 1, sequence (P00915 whole entry): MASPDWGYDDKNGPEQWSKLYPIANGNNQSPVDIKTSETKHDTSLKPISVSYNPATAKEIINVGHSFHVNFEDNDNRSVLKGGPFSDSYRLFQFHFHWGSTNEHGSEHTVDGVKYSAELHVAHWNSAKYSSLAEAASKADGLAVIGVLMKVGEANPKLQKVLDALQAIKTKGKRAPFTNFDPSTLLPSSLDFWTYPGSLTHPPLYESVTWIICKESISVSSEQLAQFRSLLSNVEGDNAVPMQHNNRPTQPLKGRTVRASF

`O=C(S)N1CCN(c2cccc(Cl)c2)CC1`: the results for the Ki at Carbonic anhydrase 2 and at Carbonic anhydrase 9 were more than 2000 nM and 4.9 nM, respectively.

For `CN1CCN(NC(=O)S)CC1`, the values for the Ki at Carbonic anhydrase 9 and on Carbonic anhydrase 1 were 7.7 nM and more than 2000 nM, respectively.

`CC(C)CN(CC(C)C)C(=O)S` displayed a Ki at Carbonic anhydrase 9 of 9.2 nM.

As to `O=C(S)N1CCOCC1`, the Ki at Carbonic anhydrase 2 is more than 2000 nM; at Carbonic anhydrase 9 it was 13.5 nM.

`CN(Cc1ccccc1)C(=O)S`: the Ki is more than 2000 nM on Carbonic anhydrase 2, 11.7 nM on Carbonic anhydrase 9 and more than 2000 nM on Carbonic anhydrase 1.

On to `O=C(S)NCCc1ccccc1`, for which the inhibitory constant (Ki) at Carbonic anhydrase 9 is 21.5 nM; at Carbonic anhydrase 1, more than 2000 nM. Besides, in the experiment with Oryctolagus cuniculus, the result was Active.

As to `CCCCN(CC)C(=O)S`, the Ki at Carbonic anhydrase 2 is more than 2000 nM; on Carbonic anhydrase 9, 6.2 nM.

As to `O=C(S)N1CCN(c2ccc(C(F)(F)F)cc2)CC1`, the values for the Ki on Carbonic anhydrase 9 and on Carbonic anhydrase 1 were 11.8 nM and more than 2000 nM, respectively.

Turning to `CCCCN(CCCC)C(=O)S`, the Ki on Carbonic anhydrase 2 is more than 2000 nM; on Carbonic anhydrase 9, 6.8 nM.

`CCOC(=O)CN(C)C(=O)S` came in with a Ki at Carbonic anhydrase 9 of 22.1 nM.

Consider `CCCN(CCC)C(=O)S`, for which the Ki was 12.5 nM on Carbonic anhydrase 9 and more than 2000 nM at Carbonic anhydrase 1.

For `O=C(S)N1CCN(c2ccc(F)cc2)CC1`, at Carbonic anhydrase 9, the Ki was 6.5 nM.

For the molecule `COc1ccc(CCNC(=O)S)cc1OC`, on Carbonic anhydrase 9, the affinity, expressed as Ki, was 15.2 nM.

`O=C(CN1CCN(C(=O)S)CC1)NC1CCCCC1` returned a Ki at Carbonic anhydrase 9 of 14 nM. Besides, the outcome with Oryctolagus cuniculus was Active.
